In patent US9802899B2, “Heterocyclic compounds as pesticides” (BAYER CROPSCIENCE AG, priority 2012, dated 2017):

Test: Determination of the log P values by HPLC (formic acid method)
Type: physicochemical
Conditions: reversed-phase HPLC column (C 18), reversed-phase column (C 18), acidic range (pH 3.4), 55° C.
Procedure: 1) Description of Method for Determination of the Log P Values (Formic Acid Method)
Eluents for determination in the acidic range (pH 3.4):
Eluent A: acetonitrile+1 ml of formic acid/liter. Eluent B: water+0.9 ml of formic acid/liter.
The lambda max values were determined in the maxima of the chromatographic signals using the UV spectra from 200 nm to 400 nm.

In order of falling chromatographic logP:
1. Fc1cccc(F)c1-n1cccc1 [Ex. 46-I, 1-(2,6-Difluorophenyl)-1H-pyrrole]  2.98
2. O=C(Nc1ccn(-c2c(F)cc([N+](=O)[O-])cc2F)n1)c1ccccc1C(F)(F)F [Compound I-1-229, N-[1-(2,6-Difluoro-4-nitrophenyl)-1H-pyrazol-3-yl]-2-(trifluoromethyl)benzamide]  2.86
3. Nc1nn(-c2ccccc2Cl)cc1I [4-Iodo-1-(2-chlorophenyl)-1H-pyrazole-3-amine]  2.36
4. Nc1nn(-c2ccccc2Cl)cc1Cl [4-Chloro-1-(2-chlorophenyl)-1H-pyrazole-3-amine]  2.14

Same assay, conditions: reversed-phase column (C 18), acidic range (pH 3.4), 55° C.

In order of falling “log P” value:
1. O=C(Nc1nn(-c2ncc(C(F)(F)F)cc2Cl)c2ccccc12)c1ccccc1Br [Compound I-5-5]  3.98
2. CC(C)(C)c1ccccc1C(=O)Nc1ccn(-c2ccccc2Cl)n1 [Compound I-1-373]  3.85
3. O=C(c1ccccc1C(F)(F)F)N(CC(F)(F)F)c1ccn(-c2c(F)cccc2F)n1 [Compound I-1-265]  3.59
4. CCC(C)n1ncc(Cl)c1C(=O)Nc1ccn(-c2c(F)cccc2F)n1 (stereo not shown) [Compound I-1-244]  3.58
5. O=C(Nc1ccn(-c2ccc(Cl)cc2Cl)n1)c1ccccc1C(F)(F)F [Compound I-1-197]  3.51
6. C=CCN(C(=O)c1ccccc1C(F)(F)F)c1ccn(-c2ncc(F)cc2F)n1 [Compound I-1-469]  3.38
7. CCC(C)n1ncc(I)c1C(=O)Nc1ccn(-c2ncc(F)cc2F)n1 (stereo not shown) [Compound I-1-456]  3.28
8. O=C(Nc1nn(-c2ccccc2Cl)nc1Cl)c1ccccc1C(F)(F)F [Compound I-2-19]  3.21
9. O=C(Nc1ccn(-c2cccc(Cl)c2F)n1)c1c(F)cccc1F [Compound I-1-556]  3.12
10. O=C(Nc1ccn(-c2cccc(F)c2F)n1)c1ccccc1I [Compound I-1-67]  3.10
11. O=C(Nc1cnn(-c2ccccc2Br)n1)c1ccccc1I [Compound I-2-33]  3.06
12. Cc1cc(C(=O)Nc2ccn(-c3ccccc3Cl)n2)c(C)o1 [Compound I-1-45]  3.05
13. O=C(Nc1ccn(-c2ccccc2Cl)n1)c1c(F)cccc1C(F)(F)F [Compound I-1-384]  3.05
14. O=C(Nc1nn(-c2cc(F)cnc2F)c2ccccc12)c1ccccc1Br [Compound I-5-6]  3.05
15. O=C(Nc1ccn(-c2cccc(F)c2F)n1)c1ccccc1Cl [Compound I-1-66]  3.02
16. COc1ccc(C(=O)Nc2ccn(-c3c(F)cccc3F)c2)c(Cl)c1 [Compound I-3-4]  2.97
17. O=C(Nc1ccn(-c2ccccc2Cl)n1)c1occc1I [Compound I-1-378]  2.96
18. O=C(Nc1ccn(-c2c(F)cccc2F)n1)c1sccc1I [Compound I-1-104]  2.96
19. CCn1nc(C)c(Cl)c1C(=O)Nc1ccn(-c2ncc(F)cc2F)n1 [Compound I-1-527]  2.93
20. CCOc1c(F)cccc1-n1ccc(NC(=O)c2ccccc2Br)n1 [Compound I-1-396]  2.91
21. O=C(Nc1ccn(-c2ncc(Cl)cc2Cl)n1)c1ccccc1Cl [Compound I-1-432]  2.91
22. O=C(Nc1nn(-c2ccccc2Cl)cc1Cl)c1ccccc1Cl [Compound I-1-28]  2.88
23. CCc1cccc(F)c1C(=O)Nc1ccn(-c2c(F)cccc2F)n1 [Compound I-1-274]  2.85
24. COc1ccccc1-n1ccc(NC(=O)c2ccccc2C(F)(F)F)n1 [Compound I-1-406]  2.84
25. O=C(Nc1ccn(-c2cnc(Cl)cn2)n1)c1ccccc1Br [Compound I-1-388]  2.84
26. O=C(Nc1ccn(-c2c(F)cccc2F)n1)c1cccnc1OC(F)(F)F [Compound I-1-250]  2.77
27. O=C(Nc1nn(-c2c(F)cccc2F)cc1Br)c1ccccc1C(F)(F)F [Compound I-1-252]  2.77
28. Cc1nn(C)c(C(=O)Nc2ccn(-c3c(F)cccc3F)n2)c1Br [Compound I-1-298]  2.76
29. O=C(Nc1ccn(-c2ncc(F)cc2F)n1)c1cccc(Cl)c1Cl [Compound I-1-476]  2.72
30. COc1ccccc1-n1ccc(NC(=O)c2ccccc2Br)n1 [Compound I-1-2]  2.69
31. O=C(Nc1ccn(-c2ncc(F)cc2F)n1)c1sccc1I [Compound I-1-507]  2.69
32. O=C(Nc1ccn(-c2c(F)cccc2F)n1)c1ccccc1O [Compound I-1-87]  2.66
33. Cc1nn(C(F)F)c(C(=O)Nc2ccn(-c3ncc(F)cc3F)n2)c1F [Compound I-1-444]  2.65
34. CCc1nccnc1C(=O)Nc1ccn(-c2c(F)cccc2F)n1 [Compound I-1-285]  2.65
35. CCn1ncc(Br)c1C(=O)Nc1ccn(-c2ncc(F)cc2F)n1 [Compound I-1-518]  2.61
36. O=C(Nc1nn(-c2ncc(F)cc2F)cc1Br)c1ccccc1C(F)(F)F [Compound I-1-474]  2.61
37. Cc1noc(C(F)(F)F)c1C(=O)Nc1ccn(-c2ncc(F)cc2F)n1 [Compound I-1-511]  2.61
38. O=C(Nc1ccn(-c2cc(F)ccc2F)n1)c1cccnc1C(F)(F)F [Compound I-1-70]  2.60
39. O=C(Nc1cnn(-c2c(F)cccc2F)n1)c1nccnc1C(F)(F)F [Compound I-2-79]  2.60
40. O=C(Nc1ccn(-c2cc(F)cnc2F)n1)c1ccccc1Cl [Compound I-1-225]  2.59
41. O=C(Nc1ccn(-c2ncccc2C(F)(F)F)n1)c1ccccc1Cl [Compound I-1-425]  2.57
42. O=C(Nc1cnn(-c2ccccc2Cl)n1)c1cccnc1C(F)(F)F [Compound I-2-4]  2.54
43. O=C(Nc1ccn(-c2ncc(F)cc2F)n1)c1ccsc1I [Compound I-1-494]  2.53
44. Cc1cn(-c2ccccc2Cl)nc1NC(=O)c1cccnc1C(F)(F)F [Compound I-1-348]  2.53
45. O=C(Nc1cnn(-c2ncc(F)cc2F)n1)c1c(F)cccc1C(F)(F)F [Compound I-2-71]  2.51
46. N#Cc1cn(-c2ccccc2Cl)nc1NC(=O)c1ccccc1I [Compound I-1-368]  2.51
47. O=C(Nc1ccn(-c2ccccc2[N+](=O)[O-])n1)c1ccccc1Br [Compound I-1-418]  2.50
48. O=C(Nc1ccn(-c2ncc(F)cc2F)n1)c1c(F)cccc1Br [Compound I-1-637]  2.50
49. O=C(Nc1cnn(-c2ncccc2Cl)n1)c1c(F)cccc1C(F)(F)F [Compound I-2-57]  2.48
50. Cn1cccc1C(=O)Nc1ccn(-c2c(F)cccc2F)n1 [Compound I-1-645]  2.41
51. O=C(Nc1cnn(-c2c(F)cccc2F)n1)c1cccnc1C(F)(F)F [Compound I-2-76]  2.40
52. O=C(Nc1ccn(-c2ncc(F)cc2F)n1)c1ccccc1F [Compound I-1-493]  2.31
53. O=C(Nc1ccn(-c2cccnc2Cl)n1)c1ccccc1C(F)(F)F [Compound I-1-391]  2.31
54. O=C(Nc1ccn(-c2ncc(F)cc2F)n1)C1=C(C(F)F)OCCS1 [Compound I-1-636]  2.31
55. O=C(Nc1cnn(-c2ccccc2Br)n1)c1cccnc1Cl [Compound I-2-9]  2.29
56. O=C(Nc1ccn(-c2cc(F)ccc2F)n1)c1cccnc1Cl [Compound I-1-218]  2.28
57. CC(=O)Nc1ccccc1C(=O)Nc1ccn(-c2c(F)cccc2F)n1 [Compound I-1-269]  2.20
58. Cc1cc(NC(=O)c2cccnc2C(F)(F)F)nn1-c1ccccc1Cl [Compound I-1-349]  2.13
59. O=C(Nc1ccn(-c2cccnc2Cl)n1)c1ccccc1Cl [Compound I-1-392]  2.13
60. CS(=O)(=O)c1ccccc1-n1ccc(NC(=O)c2ccccc2I)n1 [Compound I-1-184]  2.10
61. O=C(Nc1cnn(-c2c(F)cccc2F)n1)c1cccnc1Br [Compound I-2-37]  2.09
62. O=C(Nc1ccn(-c2ncc(F)cc2F)n1)c1ccccc1[N+](=O)[O-] [Compound I-1-147]  2.00
63. O=C(Nc1cnn(-c2ncccc2F)n1)c1ccccc1Cl [Compound I-2-48]  1.99
64. O=C(Nc1ccn(-c2c(F)cccc2F)n1)c1cccnc1Cl [Compound I-1-95]  1.96
65. N#Cc1cc(F)ccc1-n1ccc(NC(=O)c2cccnc2Cl)n1 [Compound I-1-631]  1.91
66. Cc1nnsc1C(=O)Nc1ccn(-c2ncc(F)cc2F)n1 [Compound I-1-160]  1.91
67. Cn1cc(C(=O)Nc2ccn(-c3ncc(Cl)cc3Cl)n2)c(I)n1 [Compound I-1-435]  1.83
68. O=C(Nc1ccn(-c2ncc(F)cn2)n1)c1c(F)cccc1F [Compound I-1-602]  1.83
69. Cn1cnc(C(=O)Nc2ccn(-c3c(F)cccc3F)n2)c1[N+](=O)[O-] [Compound I-1-242]  1.81
70. O=C(Nc1ccn(-c2c(F)cccc2F)n1)c1ccc[n+]([O-])c1C(F)(F)F [Compound I-1-243]  1.80
71. O=C(Nc1ccn(-c2ncc(F)cc2F)n1)c1cccnc1I [Compound I-1-495]  1.79
72. O=C(Nc1ccn(-c2c(F)cccc2F)n1)c1ccccc1-n1cncn1 [Compound I-1-89]  1.66
73. O=C(Nc1ccn(-c2ncccc2F)n1)c1cccnc1Br [Compound I-1-578]  1.57
74. Cc1nn(C)cc1C(=O)Nc1ccn(-c2ncc(F)cc2F)n1 [Compound I-1-446]  1.54
75. CCc1nnccc1C(=O)Nc1ccn(-c2ncc(F)cc2F)n1 [Compound I-1-505]  1.50
76. O=C(Nc1ccn(-c2ncc(F)cc2F)n1)c1ccccc1-n1cncn1 [Compound I-1-150]  1.47
77. Cc1cccnc1C(=O)Nc1ccn(-c2ccccc2Br)n1 [Compound I-1-336]  1.44

Compound Nc1cnn(-c2c(F)cccc2F)n1 [Ex. 21-IX, 2-(2,6-Difluorophenyl)-2H-1,2,3-triazole-4-amine] has a chromatographic logP of 1.16.
